Values after ≈ are worked out from the molar mass of the structure shown.
Experiments:
[1] = test system: Barley; experiment: Whole Plant Screen (2), barley; assay type: in vivo, Barley (Atem); settings: BR, 4000 ppm, side-by-side, Table XIII
[2] = Solubility in water; assay type: physicochemical
[3] = Half life in soil; assay type: physicochemical
[4] = test system: plants (broad species spectrum); experiment: Overall plant growth regulating effects in the Examples; assay type: in vivo; settings: 1000 ppm rate
[5] = test system: Maize; settings: MZ, 4000 ppm, 2-3 weeks
Description: (§1) The compounds were tested for plant growth regulator activity against up to tweleve plant species for various growth effects relevant to plant growth regulation.
(§2) Each chemical was applied at 4000 ppm (4 kg/ha in a 1000 l/ha field volume) using a tracksprayer and a SS8004E (Teejet) nozzle.
(§3) After spray, the plants were grown in a glasshouse with 25° C. day/22° C. night temperatures and supplementary lighting was supplied when necessary (from mercury vapour lamps), to provide a 16 hour photoperiod. The exception to this were the temperate cereals, wheat and barley, which were grown in 16° C. day 13° C. night temperatures
(§4) After 2-3 weeks in the glasshouse, depending on the time of year, the plants were visually assessed for morphological characteristics. Formulations blanks were used as controls to assess the Plants.

[6] = test system: Tomato; settings: TO, 4000 ppm, 2-3 weeks
[7] = test system: Vines; settings: VN, 4000 ppm, 2-3 weeks
Description: as §1, §2, §3, §4

[8] = test system: Radish; settings: RA, 4000 ppm, 2-3 weeks
Description: as §1, §2, §3, §4

[9] = test system: Lettuce; settings: LT, 4000 ppm, 2-3 weeks
Description: as §1, §2, §3, §4

Row | Structure (SMILES) | G = Greening effect [1] | T = Tillering or side shooting [1] | solubility [2] [µg/mL] | half-life [3] [days] | retardant activity on barley and rice versus apples [4] | Retardation score (1-3) with greening (G), apical damage (A), tillering/side shooting (T) [5] [GA] | Retardation score (1-3) with greening (G), apical damage (A), tillering/side shooting (T) [6] | Retardation score (1-3) with greening (G), apical damage (A), tillering/side shooting (T) [7] [GT] | Retardation score (1-3) with greening (G), apical damage (A), tillering/side shooting (T) [8] [G] | I = Interligular or internodal length reduction [1] | Retardation score (1-3) with greening (G), apical damage (A), tillering/side shooting (T) [9] [G]
1 | CCCCC#CC(O)(Cn1cncn1)C(C)(C)C (stereo not shown) [Compound 1, 2,2-dimethyl-3-hydroxy-3-(hex-1-yne-1-yl)-4-(1,2,4-triazol-1-yl)-butane] | 1 (10-30%) | 1 (10-30%) | 1900 (≈ 7.62 mM) | 7 to 14 | considerably more active as a cereal retardant on barley and rice than as a woody species retardant on apples | 2 | 2G | 1 | 2 | – | –
2 | CC(C)CC#CC(O)(Cn1cncn1)C(C)(C)C (stereo not shown) [Compound 7, 2,2-dimethyl-3-hydroxy-3-(4-methyl-pent-1-yne-1-yl)-4-(1,2,4-triazol-1-yl)-butane] | 1 (10-30%) | – | – | – | – | – | 2GT | – | – | 3 (61-100%) | 1

Source: patent publication US4895589A, “Heterocyclic compounds” (Imperial Chemical Industries PLC, priority 1985, dated 1990)
